“Also recorded” adds a separate entry of the source.

Results on 6 compounds are retold here after patent publication US4444778A, “Method and composition for treating atherosclerosis” (priority 1982, dated 1984).

In experiment [1] the test system is aortic smooth muscle cell proliferation after vascular injury. Put plainly: Specific activity of aortic smooth muscle cell DNA after balloon catheter vascular injury (Example 4, Table IV). Format: in vivo, rat. Set-up: Specific Activity for smooth muscle cell DNA, repeat test: concentration or dose not given beside the values. The conditions noted are these: for inhibition of injury-induced smooth muscle cell proliferation: after experimental vascular injury, similar = as with methiothepin 10 mg/kg i.p.; for Specific Activity for smooth muscle cell DNA, repeat test: untreated 100, vehicle 92, standard error (%) in own column; for dose dependent Specific Activity, methiothepin: vehicle = 100. On the procedure:
Rat aortas are denuded of endothelium by passing a catheter with an inflated balloon at its tip down the length of the blood vessel. In animal models, this type of vascular injury has been shown by Goldberg, et al (Vascular Smooth Muscle Cell Kinetics: A New Assay For Studying Patterns of Cellular Proliferation In Vivo, Science, 205, 920-922, 1979), to stimulate formation of vascular lesions resembling those of human atherosclerosis 48 hours after injury. The rats are injected intravenously with ^3 H-thymidine, which is incorporated into the DNA of proliferating smooth muscle cells. After one hour, the specific activity of aortic smooth muscle cell DNA is determined and used as an index of smooth muscle cell proliferation in the injured vessel wall.

For experiment [2], the system named is vascular lesions of the aorta after de-endothelialization. Nature of the experiment: Lesion area after aortic de-endothelialization (Example 5, Table V). Format: in vivo, rat (male Sprague-Dawley). The following applies: 25 mg/kg by gavage. An excerpt: The use of serotonin antagonists in preventing or impeding arteriosclerotic lesion is indicated in vivo essentially in accordance with the de-endothelialization procedure of Tiell, et al (Influence of the Pituitary on Arterial Intima Proliferation in the Rat, Circulation Research, Vol. 42, No. 5, […], May 1978). Male Sprague-Dawley rats weighing 300-360 grams are fed a constant formula rodent lab chow and water ad libitum for two weeks prior to the start of the test. For two days before de-endothelialization and for the following 14 days until sacrifice, the animals receive either a placebo or 1 to 200 milligrams per kilogram per day of test compound. On the day of de-endothelialization, the drug is administered intravenously at one-tenth the oral dosage. De-endothelialization is carried out in the aortas of the anesthetized animals by balloon catheterization. The animals are weighed daily from the time of dosing and their behavior is recorded 3 to 4 hours following administration of the test compound. Fourteen days after catheterization, whole body perfusion fixation is carried out at 37° C. with 3% buffered glutaraldehyde in 0.15 M sodium cacodylate at pH 7.4 under 90-100 millimeters hydrostatic pressure. The aorta is removed, cut into 10 equal segments, and following two additional hours in the buffered glutaraldehyde, is treated with 1% osmium tetroxide, dehydrated, infiltrated with Squer's resin and cured. The segments are stained with Stevenal's blue and basic fuchsin, and the lesion areas is determined with a zeiss standard microscope and Videoplan computerized image analyzer. Please see examples for results.
Male Sprague-Dawley rats weighing 300-360 grams are individually ear tagged, housed and allowed to acclimate for two weeks prior to the start of the test. A constant formula rodent lab chow from Ralston Purina and water are available to the animals ad libitum.
For two days prior to de-endothelialization and for 14 days after, pizotyline at a dose of 25 milligrams per kilogram and placebo are administered by gavage in physiological saline to nine drug animals and 19 control animals. All animals are dosed between 8:00 and 10:00 A.M. daily. […] The animals are weighed daily at the time of dosing and behavior for each animal is recorded three to four hours after dosing. […]
On the day of de-endothelialization, the animals are anesthetized by ether inhalation and catheterization is carried out by the following procedure. […] The catheter balloon tip is advanced cephaled to the aortic arch region as determined through external catheter demarcations and inflated to a pre-established maximum diameter with approximately 900 mm Hg air pressure. […]

The test system of experiment [3] is Smooth muscle cells (explants of bovine aortic media). Put plainly: Smooth muscle cell number, 72 h incubation with mitogen (Example 1, Table I). Format: cell-based. The conditions noted are these: for Cell Number/Plate: 72 h, mean ± SEM, n = 6; for smooth muscle proliferation in cell culture: with and without 2% human platelet-poor plasma. On the procedure: After the 72-hour incubation period, the cells are harvested for cell-number determination by Coulter Counter.

In experiment [4] the test system is Smooth muscle cells (BASMC). Nature of the experiment: Smooth muscle cell number, 96 h incubation with serotonin, PDGF or serotonin receptor blocker (Example 2, Table II). Format: cell-based, bovine. The following applies: for effect on serotonin-induced increase in smooth muscle cell number / Cell Number/Plate: 96 h, 2.5% platelet-poor plasma; for effect on serotonin-induced increase in smooth muscle cell number: similar = as with cyproheptadine; for Cell Number/Plate: mean ± SEM, n = 6. The procedure:
Smooth muscle cells are grown from explants of bovine aortic media as described by Coughlin, et al (Platelet-Dependent Stimulation of Prostacyclin Synthesis by Platelet Derived Growth Factor, Nature, 288, pp. 600-602, 1980). Cells are seeded at 10^5 cells per 35 mm tissue culture well in Dulbecco's Modified Eagle Medium containing 10% calf serum and allowed to grow for 24 hours. The serum-containing medium is then removed and the cells are allowed to become quiescent in Medium 199 for 24 hours. The quiescent cultures are then incubated for 72 hours in Medium 199, with or without the mitogen to be tested. After the 72-hour incubation period, the cells are harvested for cell-number determination by Coulter Counter.
Smooth muscle cells are seeded and made quiescent as described in Example 1. Cultures are then treated with serotonin, PDGF or cyproheptadine, a serotonin receptor blocker. The cultures are then incubated for 96 hours in Medium 199 containing 2.5% platelet-poor plasma and the treatment to be tested.

Another experiment relates to Smooth muscle cells. Put plainly: 3H-thymidine incorporation into smooth muscle cells (Example 3, Table III). The following applies: for effect on 3H-thymidine incorporation / response to serotonin: cyproheptadine 10^-7 M, similar = as with cyproheptadine; for CPM/Well (3H-thymidine incorporation): about 36 h, mean ± SEM, n = 4; for % Increase (3H-thymidine incorporation): versus control. It counts as cell-based. On the procedure:
In this experiment, stimulation of ^3 H-thymidine incorporation is used as an index of the ability of a compound to promote smooth muscle cell proliferation. Smooth muscle cells are seeded in 96 well Linbro racks (5 mm diameter/well) and allowed to grow for 72 hours. […] After approximately 36 hours, the cells are washed with saline, fixed with 10% TCA, washed with water, lysed with 1% SDS, and the lysate counted for ^3 H. This procedure allows the investigator to assess the amount of ^3 H-thymidine taken up by smooth muscle cells and incorporated into DNA.
(Dividing cells build labelled thymidine or BrdU into new DNA.)

Experiment [5] has as its system Smooth muscle cells (explants of bovine aortic media). The conditions noted are these: shown by others; cited from earlier work.

Consider `CN1CCC(=C2c3ccccc3CCc3sccc32)CC1` [Pizotyline, 4-[1-methyl-4-piperidylidene]-9,10-dihydro-4H-benzo[4,5]cyclohepta[1,2-b]thiophene], for which the “inhibition of injury-induced smooth muscle cell proliferation” value (“inhibition” below) in experiment [1] (b.i.d.) is listed as “remarkably effective”. Moreover, in experiment [2] (abdominal, 2 days before and 14 days after, normalized to 1,000 μm length, control 60,310.3), the “Mean Lesion Area, Abdominal” value is recorded as 27,135.4 Square Microns. Further, in experiment [2] (abdominal, compared to control), the “reduction of lesion formation, abdominal segments” value turned out to be 55%. Also, the “Mean Lesion Area, Thoracic” value in experiment [2] (thoracic, 2 days before and 14 days after, normalized to 1,000 μm length, control 50,283.1) is 11,834.8 Square Microns. For the same compound, the “mean reduction of lesion formation, thoracic segments” value in experiment [2] (thoracic, compared to control lesion areas) was determined as 77%.

`NCCc1c[nH]c2ccc(O)cc12` [Serotonin]: the “Cell Number/Plate” value in experiment [3] (No Plasma, serotonin 10^-5 M) is given as 8.34 ± 0.43 ×10^-5; in experiment [3] (Plasma (2% human platelet-poor plasma), serotonin 10^-5 M), 12.19 ± 0.13 ×10^-5; in experiment [4] (serotonin 10^-5 M), 7.68 ± 0.12 ×10^-5. In addition, the “smooth muscle proliferation in cell culture” value in experiment [3] was “more smooth muscle cells are present; also recorded: potent promoter of smooth muscle proliferation”. Further, in experiment [4], the “effect on serotonin-induced increase in smooth muscle cell number” value was “increases the number of smooth muscle cells”. Besides, the “% Maximum” value in experiment [4] (serotonin 10^-5 M, relative to 10% Fetal Calf Serum = 100) amounted to 33%. In addition, the “effect on 3H-thymidine incorporation / response to serotonin” value in the experiment with Smooth muscle cells (PDGF 1 ng/ml) is recorded as “stimulates smooth muscle cell proliferation”. Further, the “CPM/Well (3H-thymidine incorporation)” value with Smooth muscle cells (serotonin 10^-6 M) is 306.4 ± 3.1 CPM/Well (×10^-3); in the experiment on Smooth muscle cells (serotonin 10^-7 M), 139.8 ± 11.9 CPM/Well (×10^-3). Besides, the “% Increase (3H-thymidine incorporation)” value was 240% in the experiment on Smooth muscle cells (serotonin 10^-6 M) and 55% with Smooth muscle cells (serotonin 10^-7 M). Also, the “inhibition” value in experiment [1] (b.i.d.) is listed as “important in mediating smooth muscle cell proliferation after vascular injury”.

As for `CN1CCC(=C2c3ccccc3C=Cc3ccccc32)CC1` [Cyproheptadine], in experiment [4], the “effect on serotonin-induced increase in smooth muscle cell number” value is “attenuated”. Besides, the “effect on 3H-thymidine incorporation / response to serotonin” value in the experiment with Smooth muscle cells (PDGF 1 ng/ml) is “attenuates this response to serotonin”.

As for `COC(=O)[C@H]1[C@H]2C[C@@H]3c4[nH]c5cc(OC)ccc5c4CCN3C[C@H]2C[C@@H](OC(=O)c2cc(OC)c(OC)c(OC)c2)[C@@H]1OC` [Reserpine], in experiment [1], the “Specific Activity for smooth muscle cell DNA, repeat test” value is recorded as 68 % of control.

With `CSc1ccc2c(c1)C(N1CCN(C)CC1)Cc1ccccc1S2` (centres unmarked) [Methiothepin], the “inhibition” value in experiment [1] (b.i.d.) is reported as “marked inhibition; also recorded: remarkably effective”. For the same compound, the “dose dependent Specific Activity, methiothepin” value in experiment [1] (methiothepin 0.3 mg/kg) amounted to 51; in experiment [1] (methiothepin 1.0 mg/kg), 24; in experiment [1] (methiothepin 3.0 mg/kg) it was 23; in experiment [1] (methiothepin 10.0 mg/kg) it was 20. The “Specific Activity of aortic smooth muscle cell DNA” value in experiment [1] (methiothepin 10 mg/kg i.p., b.i.d., control 91.6 ± 13.7, mean ± standard error (N = 6)) amounted to 18.1 ± 5.3 CPM/ugDNA. Further, the “Specific Activity for smooth muscle cell DNA, repeat test” value in experiment [1] is on record as 23 % of control.

On to PDGF, for which the “Cell Number/Plate” value in experiment [3] (No Plasma, PDGF 8 ng/ml) is listed as 9.65 ± 0.29 ×10^-5; in experiment [3] (Plasma (2% human platelet-poor plasma), PDGF 8 ng/ml), 14.24 ± 0.04 ×10^-5; in experiment [4] (PDGF 0.5 ng/ml, alone or with serotonin / cyproheptadine as in label), 8.11 ± 0.23 ×10^-5; in experiment [4] (PDGF 4.0 ng/ml, alone or with serotonin / cyproheptadine as in label) it was 10.66 ± 0.16 ×10^-5. Besides, the “smooth muscle proliferation in cell culture” value in experiment [3] is “active”. For the same compound, the “% Maximum” value in experiment [4] (PDGF 0.5 ng/ml, alone or with serotonin / cyproheptadine as in label, relative to 10% Fetal Calf Serum) came to 39%; in experiment [4] (PDGF 4.0 ng/ml, alone or with serotonin / cyproheptadine as in label, relative to 10% Fetal Calf Serum), 72%. For the same compound, the “CPM/Well (3H-thymidine incorporation)” value in the experiment on Smooth muscle cells (PDGF 1 ng/ml) was 454.7 ± 28.3 CPM/Well (×10^-3). In addition, the “% Increase (3H-thymidine incorporation)” value in the experiment on Smooth muscle cells (PDGF 1 ng/ml) stood at 405%. Besides, in the experiment with Smooth muscle cells (PDGF 1 ng/ml), the “effect on 3H-thymidine incorporation / response to serotonin” value is on record as “increase thymidine incorporation”. Besides, in experiment [5], the “mitogen for smooth muscle cells” value is “mitogen for smooth muscle cells”.
